{"source": "patent US20120009644A1", "about": "“Tissue Implants for Implantation and Methods for Preparing the Same” (CRYOLIFE, INC., priority 2010, published 2012)", "origin": "cited, not measured here", "system": "sensitive bacteria", "conditions": "literature review", "data": [{"smiles": "NCC[C@H](O)C(=O)N[C@@H]1C[C@H](N)[C@@H](O[C@H]2O[C@H](CN)[C@@H](O)[C@H](O)[C@H]2O)[C@H](O)[C@H]1O[C@H]1O[C@H](CO)[C@@H](O)[C@H](N)[C@H]1O", "note": "[amikacin]", "values": [{"measurement": "minimum inhibitory concentration against sensitive bacteria (MIC) range", "value": "0.125 to 32", "unit": "µg/mL"}]}]}
